Assay results: US20090221576A1, “Pharmaceutical Use of 2-Hydroxy-3-[5-(Morpholin-4-Ylmethyl) Pyridin-2-YL]-1H-IN-Dole-5-Carbonitrile as a Free Base or Salts” (ASTRAZENECA AB GLOBAL INTELLECTUAL PROPERTY, priority 2006, published 2009)

Tested on: Han Wistar rats
Test: Increased bone formation in rats, four-week oral gavage study, light microscopy of femur, femorotibial joint and sternum
Format: in vivo, rat
Protocol: Male and female Han Wistar rats were dosed by oral gavage, at dosages of 15, 55 or 100 μmol/kg/day for four weeks and compared to vehicle controls. Complete necropsies were performed and the tissues preserved in 10% formalin. The femur, femorotibial joint and sternum were decalcified, embedded in paraffin, sectioned at 5 μm thickness and stained with hematoxylin and eosin.

[1] = rat, 100 μmol/kg for 4 weeks, vs vehicle-treated control rat (FIG. 1a)

SMILES | bone formation as evaluated by light microscopy (male and female Han Wistar rats, oral gavage, 100 μmol/kg dose level, four weeks, vs vehicle controls, femur, femorotibial joint, sternum, H&E) | formation of osteoid in the femur (epiphysis), FIG. 1b [1] | number of osteoblasts in the femur (epiphysis), FIG. 1b [1]
N#Cc1ccc2[nH]c(O)c(-c3ccc(CN4CCOCC4)cn3)c2c1.O=C(O)CC(O)(CC(=O)O)C(=O)O [Example 1, 2-Hydroxy-3-[5-(morpholin-4-ylmethyl)pyridin-2-yl]1H-indole-5-carbonitrile citrate salt] | increased bone formation in the form of thickened trabeculae, thickened cortical bone, periosteal hyperostosis and increased number of osteoblasts | – | –
N#Cc1ccc2[nH]c(O)c(-c3ccc(CN4CCOCC4)cn3)c2c1 [compound (I), 2-hydroxy-3-[5-(morpholin-4-ylmethyl)pyridin-2-yl]1H-indole-5-carbonitrile] | – | marked increase in formation of osteoid | increased number of osteoblasts
